Read-outs that look alike come from different tables or passages of the source.
Columns and labels:
[1] = Orientating test of toxicity; conditions: in vivo
Procedure: The alkoxybenzoic acid esters, to be used in accordance with the present invention, were tested for their inflammation-inhibiting properties in the experiments described hereinafter. An orientating test of their toxicity was first carried out in order to be able to establish the test dosages for further experiments.

[2] = tested on: Dextran edema, rat's paw; assay: Edema of the rat's paw test, dextran edema; assay type: in vivo; conditions: 1000 mg/kg p.o. thirty minutes before dextran, measured thirty minutes after dextran injection
Procedure: The edema of the rat's paw test, as described by F. Kemper in "Arzneimittelforschung" 10 (1960), p. 777, was used as a test for assessing the compounds with respect to their suitability for inhibiting inflammation. In order to produce the edema, 0.1 ml of 6% dextran solution was injected to a depth of approximately 5 mm between the second and third toe of the right hind paw of the test animals. While only the dextran solution was administered to the control test animals, the various test substances were injected or administered per os to the test animals in the quantities given in Table I thirty minutes before the test animals were injected with the dextran solution. The volume of the paws was determined by means of the electrical volume measuring device described in detail by Kemper & Amelin in "Zeitschrift fur die gesamte experimentelle Medizin" 131 (1958), p. 407.
The measurements were taken thirty minutes after the dextran solution injection. For the purpose of comparison, the left untreated paw was in each case measured at the said times. The amount of the swelling in animals which had been treated with the test substance and in non-treated animals thirty minutes after the dextran injection were used to calculate the degree of the inhibiting of the edema as a percentage of the swelling which occurred in animals which had not received any test substance.

[3] = tested on: Carrageenin edema, rat's paw; assay: Rat's paw test, carrageenin edema (amputation methodology); assay type: in vivo; conditions: 1000 mg/kg p.o. one hour before initiating the inflammation, paws weighed three hours after carrageenin
Text: The so-called amputation methodology, described by C. H. Winter in Journal of Pharmaceutical and Experimental Therapeutics, Vol. 141 (1963), page 369, was used as a further rat's paw test. In this method, the test animals are killed three hours after injecting the substance causing the inflammation, and the weights of the paws are ascertained. The product used to cause inflammation in these tests is carrageenin. The inhibiting of the development of the edema of the rats' paws by the test substance, which was administered orally one hour before initiating the inflammation,serves as an indication of the efficacy and is expressed in percentages.

[4] = tested on: UV erythema in guinea pig; assay: Ultraviolet erythema test in guinea pigs; assay type: in vivo; conditions: 5% Tincture, mean of assessments six hours after radiation and the following morning
Procedure: Guinea pigs were subjected to the ultraviolet erythema test in a further experiment. For this purpose, the hair was removed from the backs of the test animals by shearing and treatment with a depilatory cream. The test animals were then exposed to radiation for eight minutes, and the marked test areas were then treated with the test solutions or salves. A second application was effected after thirty minutes, and a third and the following treatments were effected at intervals of sixty minutes. Six hours after having been exposed to radiation, the animals were washed, dried and visually assessed.
Assessment was repeated the following morning and the mean value for each substance was calculated from the two assessments. The two spots exposed to radiation directly behind the ears were chosen as reference points which had been exposed to radiation and which had not been treated. The intensity of the redness of these spots was equated with 0. Disappearance of the redness at the treated places was assessed by plus points up to +4 (no spots visible), and an intensification of the redness was assessed with minus points up to -4 (formation of blisters). The total of the assessments from the two evaluations, expressed in the ratio to the number of animals times 8 as the maximum attainable value (= 100%) gives the percentage inhibiting value of the substance. The inhibiting values ascertained in this manner are given in the following table under the heading "UR Erythema Guinea Pigs".

[5] = tested on: UV edema in hairless mouse; assay: Ultraviolet test on hairless mice (UV edema, skin fold thickness); assay type: in vivo; conditions: 5% in Vaseline, skin fold thickness after 30 hrs
Procedure: However, an ultraviolet test was carried out on hairless mice which also provide information concerning the efficacy of the substances for use as agents for treating sunburn. The backs of the hairless mice were exposed to radiation by an ultraviolet lamp for thirty minutes from a distance of 60 cm, thus causing a cutaneous inflammation. […] The dosage of the test substances was the same as in the rat's paw test. The degree of formation of edema was determined by measuring the skin fold thickness after thirty hours. The degree of the percentage inhibition of the erythema is given in the following Table I and was determined by comparing the change in the skin fold thickness, caused in treated test animals by exposure to radiation, with the change in the skin fold thickness in animals which, although exposed to radiation, had not been treated.

SMILES	LD50 ([1]; read-out: Orientating Toxicity) [mg/kg]	Rat's Paw Test Dextran Edema Inhibition [2] [%]	Rat's Paw Test Carrageenin Edema Inhibition [3] [%]	UV Erythema in Guinea Pig Inhibition [4] [%]	UV Edema in Hairless Mouse Inhibition After 30 hrs [5] [%]	LD50 [1] [mg/kg]	Orientating Toxicity [1]
COc1ccc(C(=O)OC(C)C)cc1 [Compound C, Isopropyl Anisate]	> 1000	20	9	40	38	–	–
CCCCOC(=O)c1ccc(OC)cc1 [Compound D, Butyl Anisate]	> 1000	9	11	51	36	–	–
COc1ccc(C(=O)OC(C)(C)C)cc1 [Compound E, Tert.-Butyl Anisate]	> 1000	11	41	43	30	–	–
COC(=O)c1ccc(OC)cc1 [Compound B, Methyl Anisate]	> 1000	28	18	31	41	–	–
CCCOC(=O)c1ccc(OC)cc1 [Compound A, n-Propyl Anisate]	> 1000	25	12	60	49	–	–
COc1ccc(C(=O)OCc2ccccc2)cc1 [Compound G, Benzyl Anisate]	–	5	19	46	31	> 1000	–
COc1ccc(C(=O)OCC(C)(C)C)cc1 [Compound F, 2,2-Dimethyl-propyl Anisate]	–	15	30	48	35	–	22 1.0 gm/kg
